Measurements published in US7531573B2 (priority 1994, dated 2009).
Where two headings read alike, the source gives them in different places.

Assays:
[1] = molecular target: Gardos channel of erythrocytes (Homo sapiens, UniProt O15554); assay: cell-based; details: for inhibition at 10 µM: read-out: Gardos Channel % Inhibition
[2] = system: NIH 3T3 mouse fibroblast cells; assay: Mitogen-induced cell proliferation; type: cell-based; details: for inhibition at 10 µM: NIH3T3, read-out: Mitogen-induced cell proliferation % Inhibition; for IC50: NIH3T3, read-out: Mitogen-induced cell proliferation IC50
From the text: Other cell lines, e.g., cancer cells, endothelial cells and fibroblasts, as well as many others, may be used in the cell proliferation assay. Selection of a particular cell line will depend in part on the desired application, and is well within the capabilities of an ordinarily skilled artisan.

[3] = erythrocytes, read-out: Gardos Channel IC50

Chain of Gardos channel of erythrocytes (O15554 whole entry): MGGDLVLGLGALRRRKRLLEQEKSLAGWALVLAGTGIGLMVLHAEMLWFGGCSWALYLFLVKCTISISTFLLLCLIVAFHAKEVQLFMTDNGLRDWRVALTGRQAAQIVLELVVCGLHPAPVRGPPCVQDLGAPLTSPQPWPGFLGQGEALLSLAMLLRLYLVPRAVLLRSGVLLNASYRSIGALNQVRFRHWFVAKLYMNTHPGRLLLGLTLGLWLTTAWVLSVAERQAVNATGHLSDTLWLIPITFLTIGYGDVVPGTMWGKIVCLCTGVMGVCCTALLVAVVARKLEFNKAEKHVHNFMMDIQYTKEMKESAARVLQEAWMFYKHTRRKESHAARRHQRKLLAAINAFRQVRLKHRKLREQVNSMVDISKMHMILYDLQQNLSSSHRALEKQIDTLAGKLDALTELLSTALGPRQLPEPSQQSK

Row | IC50 [1] | Structure (SMILES) | inhibition at 10 µM [1] | inhibition at 10 µM [2] | IC50 [2] | IC50 [1, 3]
1 | 755 nM | OC(c1ccccc1)(c1ccccc1)c1ccccc1 [Compound 1] | 97% | – | – | –
2 | 459 nM | ClC(c1ccccc1)(c1ccccc1)c1ccccc1 [Compound 2] | 99.4% | 64.8% | – | –
3 | – | c1ccc(C(c2ccccc2)(c2ccccc2)[n+]2ccccc2)cc1 [Compound 7] | 98.2% | 6.6% | – | 410 nM
4 | – | c1ccc(N(c2ccccc2)c2ccccc2)cc1 [Compound 8] | 95.6% | 28.3% | – | 2850 nM
5 | – | C1=CC(=P(c2ccccc2)(c2ccccc2)c2ccccc2)C=C1 [Compound 10] | 89.7% | 25.5% | 4800 nM | 957 nM
6 | – | SC(c1ccccc1)(c1ccccc1)c1ccccc1 [Compound 11] | 99.2% | 52% | 2310 nM | 2160 nM
7 | 252 nM | BrC(c1ccccc1)(c1ccccc1)c1ccccc1 [Compound 12] | 99% | 72.8% | 1700 nM | –
8 | – | N#CC(c1ccccc1)(c1ccccc1)c1ccccc1 [Compound 13] | 72.4% | 87% | 920 nM | 133 nM
9 | 48 nM | N#CC(c1ccccc1)(c1ccccc1)c1ccccc1Cl [Compound 14, (2-chlorophenyl)-diphenylacetonitrile] | 98.8% | 95.8% | 2200 nM | –
10 | – | NC(=O)CC(c1ccccc1)(c1ccccc1)c1ccccc1 [Compound 18] | 98% | 76.1% | 10000 nM | 431 nM
11 | – | N#CCC(c1ccccc1)(c1ccccc1)c1ccccc1 [Compound 19] | 97% | 80% | 5800 nM | 1130 nM
12 | 795 nM | OC(c1ccccc1)(c1ccccc1)c1ccccc1F [Compound 20] | 98.1% | 39% | – | –
13 | 725 nM | OC(c1ccccc1)(c1ccccc1)c1ccc(-c2ccccc2)cc1 [Compound 21] | 97.3% | 99% | 2800 nM | –
14 | 302 nM | OCCC(c1ccccc1)(c1ccccc1)c1ccccc1 [Compound 22] | 82% | 85% | 6800 nM | –
15 | – | O=C1CC[C@@H](COC(c2ccccc2)(c2ccccc2)c2ccccc2)N1 [Compound 23] | 97.9% | 77% | 3800 nM | 216 nM
16 | – | O=C1CC[C@@H](COC(c2ccccc2)(c2ccccc2)c2ccccc2)O1 [Compound 24] | 97.9% | 29% | – | 135 nM
17 | – | O=C(O)CNC(c1ccccc1)(c1ccccc1)c1ccccc1 [Compound 25] | 34.4% | 70% | – | –
18 | – | N#CCC(c1ccc(Cl)cc1)(c1ccc(Cl)cc1)c1ccc(Cl)cc1 [Compound 26] | 10% | 99% | 1300 nM | –
19 | – | Fc1ccccc1C(c1ccccc1)c1ccccc1 [Compound 27] | 100% | 99% | 3000 nM | 449 nM
20 | – | O=C(O)C(Cc1ccc2ccccc2c1)C(c1ccccc1)(c1ccccc1)c1ccccc1 (centres unmarked) [Compound 28] | 98% | 99% | 700 nM | 5220 nM
21 | – | NCCC(c1ccccc1)(c1ccccc1)c1ccccc1 [Compound 29] | 100% | 99% | 3100 nM | 649 nM
22 | – | NOC(c1ccccc1)(c1ccccc1)c1ccccc1 [Compound 34] | 96.3% | 68% | – | 939 nM
23 | 430 nM | OCC(c1ccccc1)(c1ccccc1)c1ccccc1 [Compound 35] | 95.8% | 38% | – | –
24 | – | CC(=O)C(c1ccccc1)(c1ccccc1)c1ccccc1 [Compound 37] | 100% | 31% | – | 57 nM
25 | – | O=CCC(c1ccccc1)(c1ccccc1)c1ccccc1 [Compound 38] | 92% | 99% | 800 to 2300 nM | 220 nM

Row | IC50 [1] | Structure (SMILES) | inhibition at 10 µM [1] | inhibition at 10 µM [2] | IC50 [2] | IC50 [1, 3]
26 | – | O=C(O)CC(c1ccc(Cl)cc1)(c1ccc(Cl)cc1)c1ccc(Cl)cc1 [Compound 39] | 97% | 99% | 3300 nM | 1680 nM
27 | – | CON(C)C(=O)CC(c1ccc(Cl)cc1)(c1ccc(Cl)cc1)c1ccc(Cl)cc1 [Compound 40] | – | 99% | 1000 to 1200 nM | –
28 | – | NCCC(c1ccc(Cl)cc1)(c1ccc(Cl)cc1)c1ccc(Cl)cc1 [Compound 41] | 97% | 99% | 1400 nM | 2070 nM
29 | 615 nM | Oc1ccccc1C(O)(c1ccccc1)c1ccccc1 [Compound 42] | 99% | 99% | 3300 nM | –
30 | 61 nM | OC(c1ccccc1)(c1ccccc1)c1ccc(Cl)cc1 [Compound 43] | 99% | 99% | 800 nM | –
31 | – | COC(=O)c1ccccc1C(c1ccccc1)c1ccccc1 [Compound 45] | 98% | 99% | 800 nM | 320 nM
32 | – | CCOC(c1ccccc1)(c1ccccc1)c1ccccc1 [Compound 46] | 99.5% | 99% | 2200 nM | 76 nM
33 | – | CCOC(=O)C(c1ccccc1)(c1ccccc1)c1ccccc1 [Compound 47] | 100% | 99% | 800 nM | 193 nM
34 | 1290 nM | OC(C#Cc1ccccc1)(c1ccccc1)c1ccccc1 [Compound 48] | 100% | 98% | 400 nM | –
35 | – | N#CC(c1ccccc1)(c1ccccc1)c1ccc([N+](=O)[O-])cc1Cl [Compound 49] | 88% | 94% | 300 nM | 336 nM
36 | 288 nM | OC(c1ccccc1)(c1ccc(Br)cc1)c1ccc(Br)cc1 [Compound 50] | 100% | 99% | 500 nM | –
37 | – | COC(c1ccccc1)(c1ccccc1)c1ccccc1 [Compound 51] | 100% | 37% | – | 551 nM
38 | – | N#CC(c1ccccc1)(c1ccccc1)c1ccc([N+](=O)[O-])cc1 [Compound 52] | 94% | 93% | 1700 nM | 255 nM
39 | – | COC(=O)CC(c1ccccc1)(c1ccccc1)c1ccccc1 [Compound 53] | 98% | 74% | – | 101 nM
40 | – | Nc1ccc(C(O)(c2ccc(N)cc2)c2ccc(N)cc2)cc1 [Compound 54] | 17.4% | 99% | 200 nM | –
41 | – | CCOC(=O)C(C(=O)OCC)C(c1ccccc1)(c1ccccc1)c1ccccc1F [Compound 55] | 98% | 5% | – | 58 nM
42 | – | CON(C)C(=O)CC(c1ccccc1)(c1ccccc1)c1ccccc1 [Compound 56] | 91% | 99% | 3200 nM | 275 nM
43 | – | CCOC(=O)CNC(c1ccccc1)(c1ccccc1)c1ccccc1 [Compound 57] | 89% | 21% | – | 1510 nM
44 | 247 nM | COc1ccc(C(O)(c2ccccc2)c2ccc(OC)cc2)cc1 [Compound 58] | 99.6% | 99% | – | –
45 | 489 nM | Cc1ccc(C(O)(c2ccc(C)cc2)c2ccc(C)cc2)cc1 [Compound 59] | 100% | 98% | 3000 nM | –
46 | 304 nM | COc1ccc(C(O)(c2ccccc2)c2ccccc2)cc1 [Compound 60] | 98% | 31% | – | –
47 | 2370 nM | OC(c1ccccc1)(c1ccccc1)c1cccc2ccccc12 [Compound 61] | 85% | 99% | 1600 nM | –
48 | 1080 nM | OCCC[CH2][Ge]([c]1ccccc1)([c]1ccccc1)[c]1ccccc1 [Compound 72] | – | – | – | –
49 | – | c1ccc([Si](c2ccccc2)(c2ccccc2)c2cccs2)cc1 [Compound 76] | – | 84% | – | –

Row | Structure (SMILES) | IC50 [1] | inhibition at 10 µM [1] | inhibition at 10 µM [2] | IC50 [2] | IC50 [1, 3]
50 | c1ccc(C(c2ccccc2)c2ccccc2)cc1 [Compound 3] | 1200 nM | 86.6% | 53% | – | –
51 | c1ccc(C(c2ccccc2)c2ccncc2)cc1 [Compound 4] | 2860 nM | 91% | 37.7% | – | –
52 | NC(c1ccccc1)(c1ccccc1)c1ccccc1 [Compound 5] | 1650 nM | 86% | 66% | 1280 nM | –
53 | O=C(O)CC(c1ccccc1)(c1ccccc1)c1ccccc1 [Compound 9] | 21800 nM | 77.2% | 32.7% | – | –
54 | CCOC(=O)C(C(=O)OCC)C(c1ccccc1)(c1ccccc1)c1ccccc1 [Compound 31] | 445 nM | 99% | 89% | 2600 nM | –
55 | CCOC(=O)C(C(=O)OCC)C(c1ccccc1)(c1ccccc1)c1ccccc1Cl [Compound 33] | 125 nM | 100% | 45% | – | –
56 | C#C[Si](c1ccccc1)(c1ccccc1)c1ccccc1 [Compound 44] | 388 nM | 79.4% | 82% | – | –
